Converted amounts (≈) assume the structure as drawn. Where two headings read alike, the source gives them in different places. Non-standard residues stand in square brackets, D forms with d. Residues, ends and D or L forms follow the SMILES beside them. 2Nal = N[C@@H](Cc1ccc2ccccc2c1)C(=O)O Bounds are passed on as bounds.

We go through 2 compounds from patent publication US20220289794A1, “SYNTHETIC ANTIMICROBIAL PEPTIDES” (priority 2019, published 2022).

Series [1] relates to P. aeruginosa strain ATCC 47085 biofilm.
Procedure: (§1) Bacteria. The bacterial strains employed in these assays were obtained from the American Type Culture Collection (ATCC). Each strain was propagated as recommended by the ATCC and each strain was stored as a frozen glycerol stock at −80° C.
(§2) Bacterial Propagation. […] Following the incubation, the culture was diluted to an optical density 625 nm (OD625) of 0.1 in cation adjusted Mueller Hinton Broth (CAMHB), which is equivalent to 1×10^8 CFU/mL. The culture was further diluted to 1×10^6 CFU/mL which was used for the assay.
(§3) Determination of the Temporal Effects of SPL7013 Addition to Inhibit Biofilm Formation. Each strain of bacteria was adjusted to a concentration of 1×10^6 CFU/mL and added to a 96-well flat-bottomed plate in a volume of 100 mL. One-hundred microliters (100 mL) of each compound at 10 concentrations was added in triplicate wells. The cultures were incubated for 24 hours at 37° C. under the appropriate growth conditions for each organism. Following the incubation, the media was removed, and the formed biofilms were fixed for 1 hour at 60° C. Two-hundred microliters (200 mL) of 0.06% crystal violet was added to the wells for 5 to 10 minutes and the wells were then gently washed three times with deionized H2O to remove the crystal violet. Following crystal violet staining 200 mL of 70% ethanol was added to the wells.
The test system of series [2] is Methicillin-resistant Staphylococcus aureus MRSA (ATCC BAA-1556). The note with it: ATCC BAA-1556.
The subject of series [3] is Staphylococcus aureus ATCC 33592 (MRSA) biofilm.
Procedure: as §1, §2, §3
Series [4] deals with Pseudomonas aeruginosa (ATCC 27883). The note with it: ATCC 27883.
For the next series, the system named is human red blood cells. More on the design: unit not given beside the values.
In series [5] the test system is Escherichia coli (ATCC 25922). The note with it: ATCC 25922.
Series [6] relates to Clostridium difficile (ATCC 700057). Description: MIC determination, broth microdilution (CLSI). The series is classed as cell-based.
In another series the test system is S. aureus ATCC 29213. Particulars: ATCC 29213.
Series [7] concerns Clostridium difficile (NAP1/027). Kind of series: MIC determination, broth microdilution (CLSI). The series is classed as cell-based.
A further series relates to MRSA. Description: In vivo Galleria Mellonella Assay (MRSA infection). The note with it: MRSA-infected G. mellonella, after one week.
For another series, the system named is MRSA (ATCC BAA-1556). Particulars: MRSA (ATCC BAA-1556), antibiotic alone.
The subject of series [8] is Pseudomonas aeruginosa (PSA, ATCC 27883). Kind of series: microbe, parasite or virus in culture. Particulars: ATCC27883, 24 h.
Series [9] relates to Escherichia coli (E. Coli, ATCC 25922). Description: microbe, parasite or virus in culture. The note with it: ATCC25922, 24 h, read-out: Escherichia coli (ATCC 25922) MIC, Table 31, [R5W4] (IFX-301), antibiotics alone and PHY-MIX (1:1 w/w).
Series [10] relates to Pseudomonas aeruginosa (PSA, ATCC 27883). Description: Synergy checkerboard assay (FIC index). The series is classed as cell-based. The note with it: Pseudomonas aeruginosa (ATCC 27883), antibiotic alone.
Series [11] has as its system Escherichia coli (E. Coli, ATCC 25922). Particulars: Escherichia coli (ATCC 25922), antibiotic alone.
The subject of series [12] is Methicillin-resistant Staphylococcus aureus MRSA (ATCC BAA-1556). Kind of series: microbe, parasite or virus in culture. The note with it: ATCCBAA1556|MRSA, 24 h, read-out: MRSA (ATCC BAA-1556) MIC, Table 31, [R5W4] (IFX-301), antibiotics alone and PHY-MIX (1:1 w/w).

As to `N=C(N)NCCC[C@H](NC(=O)[C@H](CCCNC(=N)N)NC(=O)[C@H](CCCNC(=N)N)NC(=O)[C@@H](N)CCCNC(=N)N)C(=O)N[C@@H](Cc1ccc2ccccc2c1)C(=O)N[C@@H](Cc1ccc2ccccc2c1)C(=O)N[C@@H](Cc1c[nH]c2ccccc12)C(=O)O` [IFX-031-1, NH2-R-R-R-R-NaI-NaI-Trp-OH] (H-RRRR[2Nal][2Nal]W-OH), the “ability to prevent biofilm formation” value in [1] and in series [3] was “able to inhibit biofilm formation” each time. Also, the “MIC MRSA ATCC BAA-1556” value in series [2] came out at 6.2 mg/L (≈ 5.07 µM). The “MIC P. aeruginosa ATCC 27883” value in [4] stood at 25 mg/L (≈ 20.4 µM). The compound also came in with an HC50 in the series with human red blood cells of 450. The “MIC E. coli ATCC 25922” value in series [5] worked out at 25 mg/L (≈ 20.4 µM). The MIC90 in series [6] and in [7] was 25 mg/L (≈ 20.4 µM) throughout. Moreover, the MIC95 in [6] is 25 mg/L (≈ 20.4 µM); in series [7], more than 50 mg/L. For the same compound, the MIC99 in [6] and in series [7] was 25 mg/L (≈ 20.4 µM) throughout. The “MIC S. aureus ATCC 29213” value in the series on S. aureus ATCC 29213 is 6.2 mg/L (≈ 5.07 µM).
`CN(C)[C@@H]1C(O)=C(C(N)=O)C(=O)[C@@]2(O)C(O)=C3C(=O)c4c(O)cccc4[C@@](C)(O)[C@H]3C[C@@H]12` [tetracycline, reference compound] gave a larvae killed in the series on MRSA of 56.3%. In addition, the MIC of antibiotic stood at 0.25 mg/L with MRSA (ATCC BAA-1556); 0.250 mg/L in the series with MRSA (ATCC BAA-1556) (Table 25); 32 mg/L in [10]; 32 mg/L in series [10] (Table 26); 8 mg/L in series [11]; 8 mg/L in series [11] (Table 25). Besides, in series [11] (Table 26), the MIC of antibiotic turned out to be 8 mg/L. For the same compound, the MIC came out at 32 mg/L (≈ 72 µM) in [8] (read-out: Pseudomonas aeruginosa (ATCC 27883) MIC, Table 29, [R6W4] (IFX-318), antibiotics alone and PHY-MIX (1:1 w/w)); 32 mg/L (≈ 72 µM) in [8] (read-out: Pseudomonas aeruginosa (ATCC 27883) MIC, Table 31, [R5W4] (IFX-301), antibiotics alone and PHY-MIX (1:1 w/w)); 8 mg/L (≈ 18 µM) in series [9]; 0.25 mg/L (≈ 0.563 µM) in series [12]. In series [10] (Table 27), the antibiotic MIC worked out at 32 mg/L.
